Laboratory results: patent US8178506B2, “Oligomeric compounds and compositions for use in modulation of small non-coding RNAs” (Regulus Therapeutics Inc., priority 2003, dated 2012)
In the oligonucleotide strings, read from the 5' end, every base follows the letter of its sugar. An asterisk marks phosphorothioate; unmarked linkages are phosphodiester. Other units and linkages are bracketed, terminal groups are in braces. A string of capitals states the bases alone. e = 2'-O-(2-methoxyethyl) (MOE); [5mC] = 5-methylcytosine; d = 2'-deoxy (DNA)

System: HeLa cells
Test: Cell cycle assay in HeLa cells
Format: cell-based, human
Details: HeLa, 150 nM; for chromosome missegregation (subG1 or aneuploid DNA content): 24-hour and 48-hour timepoints
Method: In some embodiments, HeLa cells were plated on collagen-coated 24-well plates at 50,000-60,000 cells per well, and allowed to attach to wells overnight. In some embodiments, HeLa cells were synchronized by double thymidine block (cells were washed three times with PBS, then grown in 10% FBS containing 2 mM thymidine; then 19 hours later, cells were washed three times in PBS, 10% FBS for 9 hours; cells were then incubated in 10% FBS, 2 mM thymidine for 15 hours; then washed three times with PBS, 10% FBS and samples were taken every two hours over a 16 hour period). A portion of each time sample was fixed with ethanol and treated with propidium iodide and subjected to FACs analysis for determination of the percentage of cells in each phase of the cell cycle. […] HeLa cells treated with 10 μM cisplatin or 100 ng/ml nocodazole were used as controls for G1-phase and late G2/M-phases, respectively. From the remaining portion of each of these time samples, total RNA was isolated and used to assess the expression of cell cycle marker mRNAs using the real-time RT-PCR methods and/or used to screen microarrays to assess the expression of miRNAs over the course of the cell cycle. It was observed that several miRNAs are expressed in a cell-cycle-dependent manner. Shown in Table 30 are the mRNA levels of the E2F1 transcription factor and topoisomerase 2A (Top2A), which vary over the course of the cell cycle and can be used for comparison to the experimental groups for the confirmation of cell cycle phase. Data are an average of three trials.
In some embodiments, HeLa cells were also treated with oligomeric compounds targeting miRNAs. […] The medium was removed from the plates. Each well was washed in 250 μl of PBS. […] Control cells received LIPOFECTIN™ only. […] After 24 hours (Table 31) or 48 hours (Table 32), cells were prepared for flow cytometry analysis to generate a cell cycle profile. The cell cycle profile was analyzed with the ModFit program (Verity Software House, Inc., Topsham Me.).
The random-mer ISIS 29848 (SEQ ID NO: 737) was used as a negative control, and ISIS 183891 (SEQ ID NO: 847), targeting kinesin-like 1/Eg5, was included as a positive control. Data are expressed as percentage of cells in each phase relative to the untreated control (UTC); values above 100 are considered to indicate a delay or arrest in that phase of the cell cycle. […] In some cases, the same oligomeric compound was tested in repeated experiments.
In accordance with the present invention, certain oligomeric compounds targeting miRNAs were selected for dose response studies. Using the cell cycle assay described above, the cell cycle profiles of HeLa or A549 cells treated with varying concentrations of oligomeric compounds of the present invention were assessed.
HeLa cells were treated with 25-, 50-, 100- or 150 nM of the oligomeric compounds ISIS
Numbers 327902 (SEQ ID NO: 320) and 328383 (SEQ ID NO: 492), both targeted against mir-192, and ISIS 327905 (SEQ ID NO: 323), targeting mir-205, and ISIS 328403 (SEQ ID NO: 512), targeting mir-106. Cells treated with increasing concentrations of oligomeric compounds were compared to untreated cells, to assess the dose-dependency of the observed delay or arrest. The random-mer ISIS 29848 was used as a negative control. Cells were prepared for flow cytometry 48-hours after oligonucleotide treatment, as described, supra.

| Substance | phase of the cell cycle in which cells arrest or delay (48 hours) | chromosome missegregation (subG1 or aneuploid DNA content) | also measured |
| --- | --- | --- | --- |
| CAGACTCCGGTGGAATGAAGGA (anti-miR; chemistry not fully specified) [ISIS 327905, uniform 2′-MOE PS; targets mir-205] | S-phase |  |  |
| GCCAAGGCGTGACATGATAT (chemistry not given here) [ISIS 25691, 5-10-5 2′-MOE gapmer PS targeted to Drosha RNase III mRNA] | increased percentage of cells in S-phase as well as a significant percentage of cells in the subG1 and aneuploid categories |  |  |
| GGTACAATCAACGGTCGATGGT (anti-miR; chemistry not fully specified) [ISIS 327934, uniform 2′-MOE PS; targets mir-213] | G2/M- and S-phases |  |  |
| ISIS 328403: 5-10-5 2′-MOE gapmer PS; SEQ ID NO 512; targets mir-106 pri-miRNA (eA*eG*eG*e[5mC]*e[5mC]*dT*dA*dT*dT*d[5mC]*d[5mC]*dT*dG*dT*dA*eG*e[5mC]*eA*eA*eA) [5-10-5 2′-MOE gapmer PS; targets mir-106 pri-miRNA] | S- and G2/M-phases |  | phase of the cell cycle in which cells arrest or delay (24 hours): G2/M-phase |
| ISIS 328707: SEQ ID NO: 616, targeting miR-100-1 (eG*e[5mC]*eA*eA*e[5mC]*dA*dG*dG*d[5mC]*d[5mC]*dT*d[5mC]*dA*dA*dT*eA*eT*e[5mC]*eT*eT) |  |  | phase of the cell cycle in which cells arrest or delay (both 24 and 48 hours): G2/M-phase |
| ISIS 328759: SEQ ID NO: 668, targeted to mir-216 (eG*eA*eG*eG*eG*dA*dT*dT*dG*dT*dA*dT*dG*dA*dA*e[5mC]*eA*eT*e[5mC]*eT) | delay or arrest resulted in the G2/M-phase | induce chromosome missegregation events | phase of the cell cycle in which cells arrest or delay (both 24 and 48 hours): G2/M-phase |
| ISIS 338678: SEQ ID NO: 505, targeted to the mir-205 pri-miRNA (CTGGTTGGGTATGAGACAGA; all 2'-MOE, all phosphorothioate, methylation of C not given here) |  |  | phase of the cell cycle in which cells arrest or delay (time point not stated): G2/M-phase |
| ISIS 338797: SEQ ID NO: 624, targeted to hypothetical miRNA-144 (CTGGGGAGGGGGTTAGCGTC; all 2'-MOE, all phosphorothioate, methylation of C not given here) |  | induce chromosome missegregation events |  |
| ISIS 338833: SEQ ID NO: 660, targeted to hypothetical miRNA-181 (TCGTGCACCTGAGGAGTCTG; all 2'-MOE, all phosphorothioate, methylation of C not given here) |  | induce chromosome missegregation events |  |
| ISIS 341787: SEQ ID NO: 852, targeted against mir-125a (mouse) (CACAGGTTAAAGGGTCTCAGGGA; all 2'-MOE, all phosphorothioate, methylation of C not given here) | arrest or delay in G2/M as well as an increased percentage of cells in the subG1 and aneuploid categories |  |  |
